Data published in ChEMBL document CHEMBL2440050 (ACS Med Chem Lett, 2013).

What was measured:
[1] = test system: HCT-116; test: Growth inhibition of vinblastine-sensitive human HCT116 cells after 72 hrs by phosphatase assay; assay type: functional, cell-based; settings: HCT-116, 72 h
[2] = test system: HCT-116/VM46; test: Growth inhibition of vinblastine-resistant human HCT116/VM46 cells overexpressing P-gp after 72 hrs by phosphatase assay; assay type: functional, cell-based; settings: HCT-116/VM46, 72 h
[3] = test system: L1210; test: Growth inhibition of mouse L1210 cells after 72 hrs by phosphatase assay; assay type: functional, cell-based; settings: L1210, 72 h
[4] = test system: LS174T; test: Ratio of vinblastine IC50 to compound IC50 for human LS 174T cells by MTS assay; assay type: functional
[5] = test system: ZR-75-1; test: Ratio of vinblastine IC50 to compound IC50 for human ZR-75-1 cells by MTS assay; assay type: functional
[6] = test system: HCC1143; test: Growth inhibition of human HCC1143 cells after 72 hrs by MTS assay; assay type: functional, cell-based; settings: HCC1143, 72 h
[7] = test system: HCC70; test: Ratio of vinblastine IC50 to compound IC50 for human HCC70 cells by MTS assay; assay type: functional
[8] = test system: HCT-116/VM46; test: Ratio of vinblastine IC50 to compound IC50 for vinblastine-resistant human HCT116/VM46 cells overexpressing P-gp by phosphatase assay; assay type: functional
[9] = test system: T47D; test: Growth inhibition of human T47D cells after 72 hrs by MTS assay; assay type: functional, cell-based
[10] = test system: HCT-116; test: Ratio of vinblastine IC50 to compound IC50 for vinblastine-sensitive human HCT116 cells by phosphatase assay; assay type: functional
[11] = test system: NCI-H520; test: Ratio of vinblastine IC50 to compound IC50 for human NCI-H520 cells by MTS assay; assay type: functional
[12] = test system: HCT-116/VM46; test: Ratio of vinblastine IC50 to compound IC50 for vinblastine-resistant human HCT116/VM46 cells overexpressing P-gp by MTS assay; assay type: functional
[13] = Growth inhibition of human KPL4 cells after 72 hrs by MTS assay; assay type: functional, cell-based; settings: KPL4, 72 h
[14] = test system: HCC1143; test: Ratio of vinblastine IC50 to compound IC50 for human HCC1143 cells by MTS assay; assay type: functional
[15] = test system: MCF7; test: Growth inhibition of human MCF7 cells after 72 hrs by MTS assay; assay type: functional, cell-based; settings: MCF7, 72 h
[16] = test system: AU565; test: Ratio of vinblastine IC50 to compound IC50 for human AU565 cells by MTS assay; assay type: functional
[17] = test system: T47D; test: Ratio of vinblastine IC50 to compound IC50 for human T47D cells by MTS assay; assay type: functional
[18] = test system: HCT-116; test: Ratio of IC50 for vinblastine-resistant human HCT116/VM46 cells overexpressing P-gp to IC50 for vinblastine-sensitive human HCT116 cells by phosphatase assay; assay type: functional
[19] = Ratio of vinblastine IC50 to compound IC50 for human LNCaP-FGC cells by MTS assay; assay type: functional
[20] = Growth inhibition of human SW403 cells after 72 hrs by MTS assay; assay type: functional, cell-based; settings: SW-403, 72 h
[21] = test system: AU565; test: Growth inhibition of human AU565 cells after 72 hrs by MTS assay; assay type: functional, cell-based; settings: AU565, 72 h
[22] = test system: MDA-MB-468; test: Ratio of vinblastine IC50 to compound IC50 for human MDA-MB-468 cells by MTS assay; assay type: functional
[23] = test system: HCT-116; test: Growth inhibition of vinblastine-sensitive human HCT116 cells after 72 hrs by MTS assay; assay type: functional, cell-based; settings: HCT-116, 72 h
[24] = test system: HCC70; test: Growth inhibition of human HCC70 cells after 72 hrs by MTS assay; assay type: functional, cell-based; settings: HCC70, 72 h
[25] = test system: ZR-75-1; test: Growth inhibition of human ZR-75-1 cells after 72 hrs by MTS assay; assay type: functional, cell-based; settings: ZR-75-1, 72 h
[26] = test system: PA-1; test: Growth inhibition of human PA1 cells after 72 hrs by MTS assay; assay type: functional, cell-based; settings: PA-1, 72 h
[27] = test system: HCT-116/VM46; test: Growth inhibition of vinblastine-resistant human HCT116/VM46 cells overexpressing P-gp after 72 hrs by MTS assay; assay type: functional, cell-based; settings: HCT-116/VM46, 72 h
[28] = test system: NCI-H520; test: Growth inhibition of human NCI-H520 cells after 72 hrs by MTS assay; assay type: functional, cell-based; settings: NCI-H520, 72 h
[29] = Growth inhibition of human LS 174T cells after 72 hrs by MTS assay; assay type: functional, cell-based; settings: LS174T
[30] = Ratio of vinblastine IC50 to compound IC50 for human KPL4 cells by MTS assay; assay type: functional
[31] = test system: PA-1; test: Ratio of vinblastine IC50 to compound IC50 for human PA1 cells by MTS assay; assay type: functional
[32] = Ratio of vinblastine IC50 to compound IC50 for human SW403 cells by MTS assay; assay type: functional
[33] = test system: HCT-116; test: Ratio of vinblastine IC50 to compound IC50 for vinblastine-sensitive human HCT116 cells by MTS assay; assay type: functional
[34] = test system: L1210; test: Ratio of vinblastine IC50 to compound IC50 for mouse L1210 cells by phosphatase assay; assay type: functional
[35] = Growth inhibition of human LNCaP-FGC cells after 72 hrs by MTS assay; assay type: functional, cell-based; settings: LNCaP-Clone-FGC
[36] = test system: MDA-MB-468; test: Growth inhibition of human MDA-MB-468 cells after 72 hrs by MTS assay; assay type: functional, cell-based; settings: MDA-MB-468, 72 h
[37] = biological target: Tubulin (Sus scrofa) (UniProt P02554+P02550); test: Displacement of [3H]-VBL from porcine tubulin after 60 mins relative to control; assay type: protein assay
Chain of Tubulin (Sus scrofa) (P02550 whole entry, looked up): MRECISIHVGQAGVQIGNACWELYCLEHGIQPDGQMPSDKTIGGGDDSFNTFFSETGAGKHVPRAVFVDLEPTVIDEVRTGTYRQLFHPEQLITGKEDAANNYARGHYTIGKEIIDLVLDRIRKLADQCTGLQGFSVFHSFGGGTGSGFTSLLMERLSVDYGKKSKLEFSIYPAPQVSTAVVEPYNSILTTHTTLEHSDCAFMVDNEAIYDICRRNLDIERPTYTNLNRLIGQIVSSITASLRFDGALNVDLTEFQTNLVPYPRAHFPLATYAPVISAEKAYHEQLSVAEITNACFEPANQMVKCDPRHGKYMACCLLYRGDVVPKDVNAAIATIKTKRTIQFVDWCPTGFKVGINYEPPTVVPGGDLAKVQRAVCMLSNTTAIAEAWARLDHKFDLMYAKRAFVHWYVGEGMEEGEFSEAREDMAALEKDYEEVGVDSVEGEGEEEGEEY
Chain of Tubulin (Sus scrofa) (P02554 whole entry, looked up): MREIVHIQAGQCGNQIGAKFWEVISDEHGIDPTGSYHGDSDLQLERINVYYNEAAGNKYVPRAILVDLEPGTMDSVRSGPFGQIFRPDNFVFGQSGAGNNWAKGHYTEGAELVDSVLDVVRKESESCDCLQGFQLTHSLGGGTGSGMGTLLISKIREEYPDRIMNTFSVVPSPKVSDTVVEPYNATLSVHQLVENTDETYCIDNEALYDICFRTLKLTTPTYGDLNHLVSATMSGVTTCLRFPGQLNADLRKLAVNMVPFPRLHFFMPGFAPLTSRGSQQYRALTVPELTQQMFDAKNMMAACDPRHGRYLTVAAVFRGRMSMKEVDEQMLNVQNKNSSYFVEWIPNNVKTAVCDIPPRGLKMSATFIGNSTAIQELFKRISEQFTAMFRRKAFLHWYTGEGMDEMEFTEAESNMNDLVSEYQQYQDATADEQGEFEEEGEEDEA

## CC[C@]1(NC(=O)N2CCCC2)C[C@H]2CN(CCc3c([nH]c4ccccc34)[C@@](C(=O)OC)(c3cc4c(cc3OC)N(C)[C@H]3[C@@](O)(C(=O)OC)[C@H](OC(C)=O)[C@]5(CC)C=CCN6CC[C@]43[C@@H]65)C2)C1
[1]
  IC50: 0.72 nM
[2]
  IC50: 50 nM
[3]
  IC50: 0.7 nM

## CC[C@]1(NC(=O)N2CCN(C)CC2)C[C@H]2CN(CCc3c([nH]c4ccccc34)[C@@](C(=O)OC)(c3cc4c(cc3OC)N(C)[C@H]3[C@@](O)(C(=O)OC)[C@H](OC(C)=O)[C@]5(CC)C=CCN6CC[C@]43[C@@H]65)C2)C1
[1]
  IC50: 3.4 nM
[2]
  IC50: 710 nM
[3]
  IC50: 7.7 nM

## CC[C@]1(NC(=O)N2CC=CCC2)C[C@H]2CN(CCc3c([nH]c4ccccc34)[C@@](C(=O)OC)(c3cc4c(cc3OC)N(C)[C@H]3[C@@](O)(C(=O)OC)[C@H](OC(C)=O)[C@]5(CC)C=CCN6CC[C@]43[C@@H]65)C2)C1
[4]
  Ratio IC50: 10
[5]
  Ratio IC50: 10
[6]
  IC50: 0.13 nM
[7]
  Ratio IC50: 10
[8]
  Ratio IC50: 80
[9]
  IC50: 0.51 nM
[10]
  Ratio IC50: 10
[1]
  IC50: 0.52 nM
[11]
  Ratio IC50: 10
[12]
  Ratio IC50: 10
[13]
  IC50: 0.06 nM
[14]
  Ratio IC50: 10
[15]
  IC50: > 12.5 nM
[16]
  Ratio IC50: 10
[17]
  Ratio IC50: 10
[18]
  Ratio IC50: 13
[19]
  Ratio IC50: 10
[20]
  IC50: 0.5 nM
[21]
  IC50: 0.15 nM
[22]
  Ratio IC50: 10
[23]
  IC50: 0.22 nM
[24]
  IC50: 0.21 nM
[25]
  IC50: 0.71 nM
[26]
  IC50: 0.11 nM
[27]
  IC50: 6.4 nM
[28]
  IC50: 0.17 nM
[29]
  IC50: 0.46 nM
[30]
  Ratio IC50: 10
[2]
  IC50: 8.4 nM
[31]
  Ratio IC50: 10
[32]
  Ratio IC50: 10
[33]
  Ratio IC50: 10
[34]
  Ratio IC50: 10
[35]
  IC50: 0.45 nM
[36]
  IC50: 0.4 nM
[3]
  IC50: 0.52 nM

## CC[C@]1(NC(=O)N2Cc3ccc(OC)cc3C2)C[C@H]2CN(CCc3c([nH]c4ccccc34)[C@@](C(=O)OC)(c3cc4c(cc3OC)N(C)[C@H]3[C@@](O)(C(=O)OC)[C@H](OC(C)=O)[C@]5(CC)C=CCN6CC[C@]43[C@@H]65)C2)C1
[8]
  Ratio IC50: 80
[10]
  Ratio IC50: 10
[1]
  IC50: 0.69 nM
[18]
  Ratio IC50: 13
[2]
  IC50: 8.7 nM
[34]
  Ratio IC50: 10
[3]
  IC50: 0.61 nM

## CC[C@]1(NC(=O)N2CCCCC2)C[C@H]2CN(CCc3c([nH]c4ccccc34)[C@@](C(=O)OC)(c3cc4c(cc3OC)N(C)[C@H]3[C@@](O)(C(=O)OC)[C@H](OC(C)=O)[C@]5(CC)C=CCN6CC[C@]43[C@@H]65)C2)C1
[3]
  IC50: 5.5 nM

## CC[C@]1(O)C[C@@H]2CN(CCc3c([nH]c4ccccc34)[C@@](C(=O)OC)(c3cc4c(cc3OC)N(C)[C@H]3[C@@](O)(C(=O)OC)[C@H](OC(C)=O)[C@]5(CC)C=CCN6CC[C@]43[C@@H]65)C2)C1 [VINBLASTINE]
[6]
  IC50: 3.8 nM
[9]
  IC50: 5 nM
[37]
  Activity: 50%
[13]
  IC50: 2.9 nM
[15]
  IC50: > 110 nM
[20]
  IC50: 7.9 nM
[21]
  IC50: 4 nM
[24]
  IC50: 3.5 nM
[25]
  IC50: 8 nM
[26]
  IC50: 4.6 nM
[27]
  IC50: > 110 nM
[28]
  IC50: 4.5 nM
[29]
  IC50: 19.6 nM
[35]
  IC50: 5.1 nM
[36]
  IC50: 4.6 nM

## CC[C@]1(NC(=O)N2CCOCC2)C[C@H]2CN(CCc3c([nH]c4ccccc34)[C@@](C(=O)OC)(c3cc4c(cc3OC)N(C)[C@H]3[C@@](O)(C(=O)OC)[C@H](OC(C)=O)[C@]5(CC)C=CCN6CC[C@]43[C@@H]65)C2)C1
[3]
  IC50: 5.3 nM

## CC[C@]1(NC(=O)NC)C[C@H]2CN(CCc3c([nH]c4ccccc34)[C@@](C(=O)OC)(c3cc4c(cc3OC)N(C)[C@H]3[C@@](O)(C(=O)OC)[C@H](OC(C)=O)[C@]5(CC)C=CCN6CC[C@]43[C@@H]65)C2)C1
[3]
  IC50: 5.9 nM

## CC[C@]1(NC(=O)N2CCC(c3ccccc3)CC2)C[C@H]2CN(CCc3c([nH]c4ccccc34)[C@@](C(=O)OC)(c3cc4c(cc3OC)N(C)[C@H]3[C@@](O)(C(=O)OC)[C@H](OC(C)=O)[C@]5(CC)C=CCN6CC[C@]43[C@@H]65)C2)C1
[1]
  IC50: 3.1 nM
[2]
  IC50: 55 nM
[3]
  IC50: 5.3 nM

## CC[C@]1(NC(N)=O)C[C@H]2CN(CCc3c([nH]c4ccccc34)[C@@](C(=O)OC)(c3cc4c(cc3OC)N(C)[C@H]3[C@@](O)(C(=O)OC)[C@H](OC(C)=O)[C@]5(CC)C=CCN6CC[C@]43[C@@H]65)C2)C1
[3]
  IC50: 40 nM

## CC[C@]1(NC(=O)N2CCc3ccccc3C2)C[C@H]2CN(CCc3c([nH]c4ccccc34)[C@@](C(=O)OC)(c3cc4c(cc3OC)N(C)[C@H]3[C@@](O)(C(=O)OC)[C@H](OC(C)=O)[C@]5(CC)C=CCN6CC[C@]43[C@@H]65)C2)C1
[4]
  Ratio IC50: 10
[5]
  Ratio IC50: 10
[6]
  IC50: 0.16 nM
[7]
  Ratio IC50: 10
[8]
  Ratio IC50: 80
[9]
  IC50: 0.55 nM
[10]
  Ratio IC50: 10
[1]
  IC50: 0.56 nM
[11]
  Ratio IC50: 10
[12]
  Ratio IC50: 10
[13]
  IC50: 0.06 nM
[14]
  Ratio IC50: 10
[15]
  IC50: 2.1 nM
[16]
  Ratio IC50: 10
[17]
  Ratio IC50: 10
[18]
  Ratio IC50: 13
[19]
  Ratio IC50: 10
[20]
  IC50: 1.2 nM
[21]
  IC50: 0.13 nM
[22]
  Ratio IC50: 10
[23]
  IC50: 0.26 nM
[24]
  IC50: 0.13 nM
[25]
  IC50: 0.52 nM
[26]
  IC50: 0.19 nM
[27]
  IC50: 6.6 nM
[28]
  IC50: 0.14 nM
[29]
  IC50: 0.3 nM
[30]
  Ratio IC50: 10
[2]
  IC50: 8.7 nM
[31]
  Ratio IC50: 10
[32]
  Ratio IC50: 10
[33]
  Ratio IC50: 10
[34]
  Ratio IC50: 10
[35]
  IC50: 0.02 nM
[36]
  IC50: 0.12 nM
[3]
  IC50: 0.62 nM

## CC[C@]1(NC(=O)N2CCSCC2)C[C@H]2CN(CCc3c([nH]c4ccccc34)[C@@](C(=O)OC)(c3cc4c(cc3OC)N(C)[C@H]3[C@@](O)(C(=O)OC)[C@H](OC(C)=O)[C@]5(CC)C=CCN6CC[C@]43[C@@H]65)C2)C1
[1]
  IC50: 0.88 nM
[2]
  IC50: 50 nM
[3]
  IC50: 2.1 nM
